This is an account of results in the NIST ThermoML archive (doi:10.1021/je400498a).

Numbers after ± are expanded uncertainties.

For data set [1] the following is noted: for vapor or sublimation pressure: 298.15 K, Gas chromatography.
The nature of data set [2]: Molar enthalpy of transition or fusion. Particulars: Crystal; DSC.

Regarding `CC(N)C12CC3CC(CC(C3)C1)C2` (centres undefined) [1-(adamantan-1-yl)ethan-1-amine], the “vapor or sublimation pressure” value in data set [1] (Liquid) is 0.003 ± 0.002 kPa. For the molecule `N[C@@H]1C[C@H]1c1ccccc1` (relative stereo) [trans-2-phenylcyclopropylamine], the “vapor or sublimation pressure” value in data set [1] (Liquid) amounted to 0.028 ± 0.01 kPa. As for `CCCCCCCCCCCCN` [1-dodecanamine], the “vapor or sublimation pressure” value in data set [1] (Crystal) is listed as 0.0016 ± 0.0002 kPa. For `CCCCCCCCCCCCCCN` [1-tetradecanamine], in data set [1] (Crystal), the “vapor or sublimation pressure” value worked out at 0.00012 ± 8e-05 kPa. Turning to `NC12CC3CC(CC(C3)C1)C2` [tricyclo(3.3.1.1:3,7)decan-1-amine], the figures for the “vapor or sublimation pressure” value in data set [1] (Crystal) and in data set [1] (Liquid) were 0.0115 ± 0.0043 kPa and 0.021 ± 0.003 kPa, respectively. In addition, in data set [1] (Crystal, DTA), the Normal melting temperature turned out to be 204.2 ± 1.8 °C. Also, the “Molar enthalpy of transition or fusion” value in data set [2] was determined as 1.74 ± 0.12 kcal/mol. As to `CC(C)(N)Cc1ccccc1` [2-methyl-1-phenylpropan-2-amine], the “vapor or sublimation pressure” value in data set [1] (Liquid) is 0.035 ± 0.008 kPa.

In general, vapor or sublimation pressure refers to the equilibrium pressure above the liquid or solid.
